Legend:
[1] = system: activated T cells; assay: T cell viability, Cell-Titer Glo Luminescent Cell Viability Assay; type: cell-based, human; conditions: for Luciferase RLU (T cell viability): log[Agonist]
Method: Briefly, human cells were isolated from healthy donors' PBMCs by using EasySep™ Human T Cell Enrichment Kit (Stemcell Technologies) according to manufacturer's instruction. […] Cells were cultured in RPMI 1640 medium supplemented with 10% FCS and 100 I.U./mL penicillin/streptomycin in humidified incubator at 37° C. with 5% CO2. […] Culture supernatants were collected on Day 2 or 3 for cytokine analysis. Plates were then harvested on DNA specific filter papers (Perkin Elmer) using Harvester96 (Tomtec Life Sciences). The radiolabeled filters were covered with beta scintillation liquid (Perkin Elmer) and read in Microbeta® counter plates (Perkin Elmer). ^3H Thymidine was pulsed on Day 2 for T cell proliferation assay. The impact by sunitinib and axitinib on T cell proliferation and viability were repeated as previously published (FIGS. 1A and 1B).
Cell viability was measured by Cell-Titer Glo Luminescent Cell Viability Assay® (Promega, Madison). […] Table 4 below provides the Luciferase RLU values reflecting T cell viability for each of the respective inhibitors.

[2] = system: CD3/CD28-stimulated effector cells (T cells from healthy donors' PBMCs); assay: T cell proliferation assay (3H thymidine incorporation), CD3/CD28-stimulated T cells; type: cell-based, human; conditions: for Thymidine incorporation(CPM): log[Agonist]
Excerpt: Briefly, human cells were isolated from healthy donors' PBMCs by using EasySep™ Human T Cell Enrichment Kit (Stemcell Technologies) according to manufacturer's instruction. […] Culture supernatants were collected on Day 2 or 3 for cytokine analysis. Plates were then harvested on DNA specific filter papers (Perkin Elmer) using Harvester96 (Tomtec Life Sciences). The radiolabeled filters were covered with beta scintillation liquid (Perkin Elmer) and read in Microbeta® counter plates (Perkin Elmer). ^3H Thymidine was pulsed on Day 2 for T cell proliferation assay.

[3] = system: peripheral blood mononuclear cells (PMBCs); conditions: published studies (Stehle et al. 2013); cited from earlier work
[4] = system: CT26 colon carcinoma; assay: In vivo tumor efficacy, CT26 model, PF-06463922 with anti-PD-L1 (Example 2); design: species or system Balb/c mice; conditions: for Average tumor volume: anti-PD-L1 10 mg/kg i.p. every 3 days x3, PF-06463922 3 mg/kg orally once daily; for Effect on CT26 tumor growth: treatment started in tumors of 100-150 mm^3, compared with isotype
Excerpt: Both CT26 colon carcinoma and B16 melonoma cell lines have published mutanome and transcriptome data, with no known ALK fusion events or oncogenic mutations. Castle et al, BMC Genomics, 15:190 (13 Mar. 2014); Castle et al, CAN 11:3722 (11 Jan. 2012). […] The percentage of TGI was defined as 1-(Tumor volumnTreated/Tumor volumnisotype control)×100.
(§1) The CT26 colon carcinoma cell line was purchased from ATCC® CRL-2638™. B16-F10 (‘B16’) melonoma cell lines were purchased from ATCC® CRL-6475™. Cells were cultured in DMEM medium supplemented with 10% fetal bovine serum, and 100 I.U./mL penicillin/streptomycin at 37° C. in an atmosphere of 5% CO2 in air, and IMPACT-tested for pathogens at Research Animal Diagnostic Laboratory (RADIL) (Columbia, Mo.). Pathogen-free cells growing in an exponential growth phase were harvested and used for tumor inoculation.
(§2) Rat IgG2a isotype control were purchased from BioXcell (clone 2A3)(West Lebanon, N.H.).
(§3) For the second study, C57BL/6 mice were inoculated subcutaneously in the right lower flank with 0.1 ml of 1×10^6 B16 skin melanoma cells. When tumor bearing mice achieved a mean tumor volume of 100 to 150 mm^3, mice were randomly assigned to 1 of 4 treatment groups, n=10.

[5] = system: B16 skin melanoma; assay: In vivo tumor efficacy, B16 melanoma model, PF-06463922 with anti-PD-L1 (Example 2); design: species or system C57BL/6 mice; conditions: end of study (day 22 post tumor implant), n=10
Method: as §1, §2, §3

SMILES | Luciferase RLU (T cell viability) ([1]; μM: 0) | Luciferase RLU (T cell viability) ([1]; μM: 1) | Luciferase RLU (T cell viability) ([1]; μM: 2) | Luciferase RLU (T cell viability) ([1]; μM: 3) | Luciferase RLU (T cell viability) ([1]; μM: −1) | Luciferase RLU (T cell viability) ([1]; μM: −2) | Luciferase RLU (T cell viability) ([1]; μM: −3) | Thymidine incorporation(CPM) ([2]; μM: 0) | Thymidine incorporation(CPM) ([2]; μM: 1) | Thymidine incorporation(CPM) ([2]; μM: 2) | Thymidine incorporation(CPM) ([2]; μM: 3) | Thymidine incorporation(CPM) ([2]; μM: −1) | Thymidine incorporation(CPM) ([2]; μM: −2) | Thymidine incorporation(CPM) ([2]; μM: −3) | also measured
CNC(=O)c1ccccc1Sc1ccc2c(/C=C/c3ccccn3)n[nH]c2c1 [Axitinib, axitinib] | 92.63 ± 0.5221 RLU | 89.79 ± 1.428 RLU | 86.63 ± 0.8779 RLU | 78.81 ± 3.223 RLU | 91.35 ± 1.526 RLU | 95.54 ± 3.15 RLU | 97.36 ± 1.186 RLU | 437978 ± 5214.787 CPM | 385672.3 ± 9004.015^ CPM | 300379.3 ± 25594 CPM | 291128.7 ± 31076.09^ CPM | 407235 ± 52888.48 CPM | 408592.3 ± 11690 CPM | 394950 ± 19054.05 CPM | Toxicity in peripheral blood mononuclear cells [3]: only minor toxicity effects
C[C@H]1Oc2cc(cnc2N)-c2c(nn(C)c2C#N)CN(C)C(=O)c2ccc(F)cc21 [PF-06463922, (10R)-7-amino-12-fluoro-2,10,16-trimethyl-15-oxo-10,15,16,17-tetrahydro-2H-8,4-(metheno)pyrazolo[4,3-h][2,5,11]benzoxadiazacyclotetradecine-3-carbonitrile] | 88.53 ± 0.7567 RLU | 89.118 ± 1.283 RLU | 88.6231 ± 1.573 RLU | 40.36 ± 9.736 RLU | 97.8625 ± 2.288 RLU | 95.86 ± 0.6202 RLU | 98.17 ± 0.6606 RLU | 399866.7 ± 10135.82 CPM | 364978.7 ± 37421.4 CPM | 258875.3 ± 25269.1 CPM | 94120.66 ± 2728.719 CPM | 416579.3 ± 23523.21 CPM | 411422.3 ± 13377.95 CPM | 401448.3 ± 37205.07 CPM | Effect on T cell viability ([1]; FIG. 1B): did not result in dose-dependent decreases in T cell viability; Effect on T cell proliferation ([2]; activated T cells, FIG. 1A): did not have adverse effects on T cell proliferation; Average tumor volume ([4]; Day 5): 181.85 ± 12.6828 mm^3; Average tumor volume ([4]; Day 9): 253.14 ± 34.78 mm^3; Average tumor volume ([4]; Day 14): 548.44 ± 96.03 mm^3; Average tumor volume ([4]; Day 17): 962.02 ± 180.1961 mm^3; Average tumor volume ([4]; Day 21): 1696.96 ± 285.9975 mm^3; tumor growth inhibition (TGI) ([4]; day 21 post tumor inoculation, relative to the isotype control): 28.3%; Effect on CT26 tumor growth [4]: partially effective; Effect on CT26 tumor growth ([4]; listed as ALK inhibitor): did not consistently inhibit CT26 tumor growth; animals with a complete response (tumor free) [5]: no animals having a complete response

— patent US20180282415A1, “Combination of a PD-1 Axis Binding Antagonist and an ALK Inhibitor for Treating ALK-Negative Cancer” (Merck Patent GmbH, priority 2015, published 2018)
